Legend:
[1] = Pharmacokinetic analysis in dogs; format: in vivo, male beagle dogs; conditions: Dog, dihydrochloride salt, 2 mpk/PO, 1 mpk/IV
Description: Various pharmacokinetic parameters for compound 56 were measured in rats, dogs and monkeys as described below.
Following an overnight fast, male beagle dogs were dosed with the dihydrochloride salt of compound 56 orally at 2 mg/kg as a suspension in 0.4% hydroxylpropyl methylcellulose (HPMC) or intravenously at 1 mg/kg as a solution in 20% hydroxypropyl-β-cyclodextrin (20% HPβCD). For oral dosing, the animals were typically restrained by hand and dosed by oro-gastric intubation. Dogs were fed approximately 4 hours after dosing. Blood samples were collected from the jugular or cephalic vein at 0.25, 0.5, 1, 2, 4, 6, 8, 12, 24, 48, 72 and 96 hrs (PO) and 0.167, 0.25, 0.5, 1, 2, 4, 6, 8, 12, 24, 48, 72 and 96 hrs (IV) post-dosing and centrifuged to generate plasma. The plasma samples were stored at […] until analysis.
Collected plasma samples were analyzed for the presence of compound 56 using LC-MS/MS as described below.
The HPLC/API-MS/MS system for the example data consisted of a HPLC pumping system and a auto sampler with the sample tray refrigeration option connected directly to a triple quadrupole mass spectrometer with an API source. Typical HPLC methods for the example data was based on a fast gradient of two solvents: solvent A consisted of 0.1% formic acid in water, and solvent B consisted of 0.1% formic acid in acetonitrile. A fast linear gradient (start at 90% A for 0.2 min, ramp to 95% B from 0.2 to 0.5 min, hold at 95% B […], then ramp back to 90% A from 1.0 to 1.1 min, then hold at, […] from 1.1 to 1.2 min) was used. The flow rate for the HPLC system was set to 1 mL/min throughout the HPLC gradient; the HPLC column was a Halo C18 column (2.7 micron particle size, 50×2.1 mm). The example compounds were analyzed by positive ion atmospheric pressure chemical ionization tandem mass spectrometry (APCI-MS/MS). As a general procedure, selected reaction monitoring (SRM) methods were developed for each compound prior to analysis of the plasma samples. Normally, the individual SRM transitions were based on a fragmentation from the protonated molecule ([MH].) to a characteristic product ion.
Using the methods described above, the following pharmacokinetic parameters were calculated in rats, dogs and monkeys and the results are summarized in the table below.

[2] = test system: HCV chimeric replicon with NS5A of genotype 2b (AB03090); test: Cell-based HCV replicon assay (TaqMan), chimeric replicon genotype 2b (AB03090); conditions: Hepatitis C virus, 72 h, read-out: HCV replicon EC50 2b (AB03090), chimeric replicon 2b (AB03090); replicon RNA by TaqMan, day 3
Description: (§1) Measurement of inhibition by compounds of the present invention was performed using the HCV replicon system. Several different replicons encoding different HCV genotypes or mutations were used. In addition, potency measurements were made using different formats of the replicon assay, including different ways of measurements and different plating formats. See Jan M. Vrolijk et al., A replicons-based bioassay for the measurement of interferons in patients with chronic hepatitis C, 110 J. VIROLOGICAL METHODS 201 (2003); Steven S. Carroll et al., Inhibition of Hepatitis C Virus RNA Replication by 2′-Modified Nucleoside Analogs, 278(14) J. BIOLOGICAL […] 11979 (2003). However, the underlying principles are common to all of these determinations, and are outlined below.
(§2) Compounds of the present invention were assayed for cell-based anti-HCV activity using the following protocol. Replicon cells were seeded at 5000 cells/well in 96-well collagen I-coated Nunc plates in the presence of the test compound. Various concentrations of test compound, typically in 10 serial 2-fold dilutions, were added to the assay mixture, with the starting concentration ranging from 250 μM to 1 μM. The final concentration of DMSO was 0.5%, fetal bovine serum was 5%, in the assay media. Cells were harvested on day 3 by the addition of 1× cell lysis buffer (Ambion cat #8721). The replicon RNA level was measured using real time PCR (TaqMan® assay). The amplicon was located in 5B. The PCR primers were: 5B.2F, […] (SEQ. ID NO. 1); 5B.2R, […] (SEQ. ID NO. 2); the probe sequence was FAM-labeled […] (SEQ. ID NO. 3). GAPDH RNA was used as endogenous control and was amplified in the same reaction as NS5B (multiplex PCR) using primers and VIC-labeled probe recommended by the manufacturer (PE Applied Biosystem). The real-time RT-PCR reactions were run on ABI PRISM 7900HT Sequence Detection System using the following program: 48° C. for 30 minutes, 95° C. for 10 minutes, 40 cycles of 95° C. for 15 sec, 60° C. for 1 minute. The ΔCT values (CT5B-CTGAPDH) were plotted against the concentration of test compound and fitted to the sigmoid dose-response model using XLfit4 (MDL). […] Alternatively, to quantitate the absolute amount of replicon RNA, a standard curve was established by including serially diluted T7 transcripts of replicon RNA in the Taqman assay. All TaqMan® reagents were from PE Applied Biosystems. Such an assay procedure was described in detail in e.g. Malcolm et al., Antimicrobial Agents and Chemotherapy 50: 1013-1020 (2006).
(§3) Wherein gt1a_H77 was prepared as described in Yi et al., J Virol. 2004, 78(15):7904-15; gt1b_con1 was prepared as described in Lohmann et al., Science 1999, 285(5424):110-3; and gt2a_JFH was prepared as described in Kato et al., Gastroenterology. 2003, 125(6):1808-17. Chimeric replicons contain NS5A from patient isolates of genotypes 1a, 1b, 2b, 3a and 4a as indicated.

[3] = test system: HCV replicon 1a (L31V) mutant; test: Cell-based HCV replicon assay (TaqMan), genotype 1a mutant L31V; conditions: Hepatitis C virus, 72 h, read-out: HCV replicon EC50 1a (L31V)
Description: as §1, §2, §3

HCV replicon gt1b_con1 = test: Cell-based HCV replicon assay (TaqMan), genotype 1b (Con1); conditions: Hepatitis C virus, 72 h; replicon 1b (Con1); replicon RNA by TaqMan, day 3
Procedure, shortened: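 Replicon cells seeded at 5000 cells/well with compound (10 serial 2-fold dilutions from 250 μM to 1 μM top dose; 0.5% DMSO, 5% FBS) and lysed on day 3. Replicon RNA quantified by multiplex TaqMan RT-PCR (NS5B amplicon, GAPDH control); ΔCT versus concentration fitted to sigmoid dose-response. Chimeras carry patient-isolate NS5A.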

COC(=O)N[C@H](C(=O)N1CC(F)(F)C[C@H]1c1ncc(-c2ccc(-c3ccc4c(ccc5nc([C@@H]6C[Si](C)(C)CN6C(=O)[C@@H](NC(=O)OC)C(C)C)[nH]c54)c3)cc2)[nH]1)C(C)C [Compound 56]
Effective Half-Life [1]: 18 h
Volume of Distribution [1]: 1.3 L/kg
Oral Bioavailability ([1]; dose-normalized AUC between PO and IV): 8.7%
clearance ([1]; male, beagle, plasma, 1 mg/kg, read-out: Systemic Clearance): 0.8 mL/min/kg
EC50 [2]: 48 nM
EC50 [3]: 16 nM
EC50 (HCV replicon gt1b_con1): 0.003 nM
